Reference: ChEMBL document CHEMBL4138131, “Design, synthesis, kinetic mechanism and molecular docking studies of novel 1-pentanoyl-3-arylthioureas as inhibitors of mushroom tyrosinase and free radical scavengers” (Eur J Med Chem, 2017)
The source made the active and inactive calls. No cut-off for these calls is given here.

T1: Tyrosinase (Agaricus bisporus, UniProt O42713)
T1 sequence (O42713 whole entry): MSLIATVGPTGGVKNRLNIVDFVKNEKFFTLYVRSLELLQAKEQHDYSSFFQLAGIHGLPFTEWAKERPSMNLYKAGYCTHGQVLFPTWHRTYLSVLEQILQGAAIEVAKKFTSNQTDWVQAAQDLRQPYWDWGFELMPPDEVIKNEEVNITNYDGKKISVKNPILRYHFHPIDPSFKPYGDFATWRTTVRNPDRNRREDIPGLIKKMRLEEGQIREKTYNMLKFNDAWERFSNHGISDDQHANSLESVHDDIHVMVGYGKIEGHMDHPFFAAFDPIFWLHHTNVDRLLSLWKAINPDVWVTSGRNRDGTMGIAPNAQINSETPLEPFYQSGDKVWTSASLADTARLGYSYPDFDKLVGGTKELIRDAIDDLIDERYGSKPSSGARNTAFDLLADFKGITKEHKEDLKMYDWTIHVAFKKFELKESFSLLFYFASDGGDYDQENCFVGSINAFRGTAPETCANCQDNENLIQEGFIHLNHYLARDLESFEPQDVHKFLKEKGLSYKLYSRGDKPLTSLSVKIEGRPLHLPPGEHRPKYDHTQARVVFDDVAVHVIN

T2: Tyrosinase (Agaricus bisporus) (UniProt O42713)
T2 sequence (whole entry): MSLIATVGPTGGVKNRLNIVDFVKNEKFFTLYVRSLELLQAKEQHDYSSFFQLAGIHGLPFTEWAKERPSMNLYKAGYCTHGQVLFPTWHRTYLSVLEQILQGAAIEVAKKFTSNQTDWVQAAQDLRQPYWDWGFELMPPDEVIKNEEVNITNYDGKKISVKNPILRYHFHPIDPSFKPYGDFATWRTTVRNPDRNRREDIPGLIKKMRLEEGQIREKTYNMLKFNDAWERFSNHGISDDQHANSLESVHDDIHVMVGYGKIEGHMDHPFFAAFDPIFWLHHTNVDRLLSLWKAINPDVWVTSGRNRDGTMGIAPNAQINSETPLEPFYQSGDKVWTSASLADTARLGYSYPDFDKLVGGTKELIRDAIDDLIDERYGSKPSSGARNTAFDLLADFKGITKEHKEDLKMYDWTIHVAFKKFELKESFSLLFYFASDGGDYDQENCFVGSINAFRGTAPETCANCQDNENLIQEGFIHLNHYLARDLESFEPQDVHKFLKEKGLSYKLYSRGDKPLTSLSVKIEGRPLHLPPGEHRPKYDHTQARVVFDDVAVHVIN

B1: Tyrosinase (Agaricus bisporus), O42713 (protein)
chain: MSLIATVGPTGGVKNRLNIVDFVKNEKFFTLYVRSLELLQAKEQHDYSSFFQLAGIHGLPFTEWAKERPSMNLYKAGYCTHGQVLFPTWHRTYLSVLEQILQGAAIEVAKKFTSNQTDWVQAAQDLRQPYWDWGFELMPPDEVIKNEEVNITNYDGKKISVKNPILRYHFHPIDPSFKPYGDFATWRTTVRNPDRNRREDIPGLIKKMRLEEGQIREKTYNMLKFNDAWERFSNHGISDDQHANSLESVHDDIHVMVGYGKIEGHMDHPFFAAFDPIFWLHHTNVDRLLSLWKAINPDVWVTSGRNRDGTMGIAPNAQINSETPLEPFYQSGDKVWTSASLADTARLGYSYPDFDKLVGGTKELIRDAIDDLIDERYGSKPSSGARNTAFDLLADFKGITKEHKEDLKMYDWTIHVAFKKFELKESFSLLFYFASDGGDYDQENCFVGSINAFRGTAPETCANCQDNENLIQEGFIHLNHYLARDLESFEPQDVHKFLKEKGLSYKLYSRGDKPLTSLSVKIEGRPLHLPPGEHRPKYDHTQARVVFDDVAVHVIN

Columns and labels:
Tyrosinase [1] = molecular target: T1, Tyrosinase; experiment: Inhibition of mushroom tyrosinase using L-DOPA as substrate preincubated for 10 mins followed by substrate addition measured for 20 mins
[2] = Antioxidant activity assessed as DPPH radical scavenging activity at 100 ug/ml relative to control; assay type: functional
[3] = molecular target: T2, Tyrosinase (Agaricus bisporus); experiment: Non-competitive inhibition of mushroom tyrosinase at 0.271 to 4.336 uM using L-DOPA as substrate preincubated for 10 mins followed by substrate addition measured up to 5 mins by Line-weaver Burk plot analysis
[4] = molecular target: T2, Tyrosinase (Agaricus bisporus); experiment: Irreversible inhibition of mushroom tyrosinase at 0.271 to 4.336 uM using L-DOPA as substrate preincubated for 10 mins followed by substrate addition measured up to 5 mins by Line-weaver Burk plot analysis
[5] = molecular target: T2, Tyrosinase (Agaricus bisporus); experiment: Non-competitive inhibition of mushroom tyrosinase assessed as 1/Vmax at 1.084 uM using L-DOPA as substrate preincubated for 10 mins followed by substrate addition measured up to 5 mins by Line-weaver Burk plot analysis
[6] = molecular target: T2, Tyrosinase (Agaricus bisporus); experiment: Non-competitive inhibition of mushroom tyrosinase assessed as 1/Vmax at 2.18 uM using L-DOPA as substrate preincubated for 10 mins followed by substrate addition measured up to 5 mins by Line-weaver Burk plot analysis
[7] = molecular target: T2, Tyrosinase (Agaricus bisporus); experiment: Non-competitive inhibition of mushroom tyrosinase assessed as 1/Vmax at 4.336 uM using L-DOPA as substrate preincubated for 10 mins followed by substrate addition measured up to 5 mins by Line-weaver Burk plot analysis
[8] = molecular target: T2, Tyrosinase (Agaricus bisporus); experiment: Potency index ratio of kojic acid IC50 to compound IC50 for inhibition of mushroom tyrosinase
[9] = molecular target: T2, Tyrosinase (Agaricus bisporus); experiment: Non-competitive inhibition of mushroom tyrosinase assessed as 1/Vmax at 0.542 uM using L-DOPA as substrate preincubated for 10 mins followed by substrate addition measured up to 5 mins by Line-weaver Burk plot analysis
[10] = molecular target: T2, Tyrosinase (Agaricus bisporus); experiment: Non-competitive inhibition of mushroom tyrosinase assessed as 1/Vmax at 0.271 uM using L-DOPA as substrate preincubated for 10 mins followed by substrate addition measured up to 5 mins by Line-weaver Burk plot analysis
Tyrosinase [11] = molecular target: T1, Tyrosinase; experiment: Non-competitive inhibition of mushroom tyrosinase using L-DOPA as substrate preincubated for 10 mins followed by substrate addition measured up to 5 mins by Dixon plot analysis
[12] = compound: CCCCC(=O)NC(=S)Nc1ccc(OC)cc1; experiment: Non-competitive inhibition of mushroom tyrosinase assessed as substrate Km at 2.18 uM using L-DOPA as substrate preincubated for 10 mins followed by substrate addition measured up to 5 mins by Line-weaver Burk plot analysis; details: Agaricus bisporus
[13] = compound: CCCCC(=O)NC(=S)Nc1ccc(OC)cc1; experiment: Non-competitive inhibition of mushroom tyrosinase assessed as substrate Km at 1.084 uM using L-DOPA as substrate preincubated for 10 mins followed by substrate addition measured up to 5 mins by Line-weaver Burk plot analysis; details: Agaricus bisporus
[14] = compound: CCCCC(=O)NC(=S)Nc1ccc(OC)cc1; experiment: Non-competitive inhibition of mushroom tyrosinase assessed as substrate Km at 0.271 uM using L-DOPA as substrate preincubated for 10 mins followed by substrate addition measured up to 5 mins by Line-weaver Burk plot analysis; details: Agaricus bisporus
[15] = compound: CCCCC(=O)NC(=S)Nc1ccc(OC)cc1; experiment: Non-competitive inhibition of mushroom tyrosinase assessed as substrate Km at 4.336 uM using L-DOPA as substrate preincubated for 10 mins followed by substrate addition measured up to 5 mins by Line-weaver Burk plot analysis; details: Agaricus bisporus
[16] = compound: CCCCC(=O)NC(=S)Nc1ccc(OC)cc1; experiment: Non-competitive inhibition of mushroom tyrosinase assessed as substrate Km at 0.542 uM using L-DOPA as substrate preincubated for 10 mins followed by substrate addition measured up to 5 mins by Line-weaver Burk plot analysis; details: Agaricus bisporus

Row | Molecule | IC50 (Tyrosinase [1]) [µM] | Activity [2] | other results
1 | CCCCC(=O)NC(=S)Nc1ccc(Br)cc1F | 6.46 | inactive | 
2 | CCCCC(=O)NC(=S)Nc1ccc([N+](=O)[O-])cc1 | 7.99 | inactive | 
3 | CCCCC(=O)NC(=S)Nc1cccc(Cl)c1Cl | 7.75 | inactive | 
4 | CCCCC(=O)NC(=S)Nc1ccc(Cl)cc1 | 2.32 | inactive | 
5 | CCCCC(=O)NC(=S)Nc1c(C)cc(C)cc1C | 19.7 | inactive | 
6 | CCCCC(=O)NC(=S)Nc1c(Br)cc(F)cc1Br | 19.5 | inactive | 
7 | CCCCC(=O)NC(=S)Nc1ccc(Br)cc1 | 3.37 | inactive | 
8 | CCCCC(=O)NC(=S)Nc1cccc([N+](=O)[O-])c1 | 16.6 | inactive | 
9 | CCCCC(=O)NC(=S)Nc1ccc(OC)cc1 | 1.57 | 80% | inhibition [3]: Active; inhibition [4]: Active; 1/Vmax [5]: 90500 deltaA/s; 1/Vmax [6]: 110000 deltaA/s; 1/Vmax [7]: 186000 deltaA/s; Ratio IC50 [8]: 15; 1/Vmax [9]: 52400 deltaA/s; 1/Vmax [10]: 28600 deltaA/s; Ki (Tyrosinase [11]): 1.1 µM
10 | CCCCC(=O)NC(=S)Nc1ccc([N+](=O)[O-])cc1[N+](=O)[O-] | 10.1 | inactive | 
11 | B1 |  |  | Km [12]: 389 µM; Km [13]: 389 µM; Km [14]: 389 µM; Km [15]: 389 µM; Km [16]: 389 µM
